Data on six compounds can be found in patent US20190240184A1, “PHARMACEUTICAL APPLICATIONS FOR (S)-N[…] SALTS THEREOF” (NATIONAL UNIVERSITY CORPORATION CHIBA UNIVERSITY, priority 2016, published 2019).

Data set [1] has as its system normal mice. The data set is described as follows: Prepulse inhibition test (side effects).
Data set [2] deals with normal mice. Kind of data set: Hyperlocomotion test (side effects). The note with it: for time after administration at which enhanced amount of locomotion returned to a normal value: ketamine 10 mg/kg, norketamine 20 mg/kg, (S)-ketamine 10 mg/kg.
Data set [3] deals with LPS-treated mice. The data set is described as follows: Forced swimming test (FST) in LPS-induced inflammatory model of depression. The note with it: for immobility time in FST: FST 5 h after.
For data set [4], the system named is LPS-treated mice. Kind of data set: Tail suspension test (TST) in LPS-induced inflammatory model of depression. The note with it: for immobility time in TST: TST 3 h after.
Data set [5] has as its system social defeat stress mice. The data set is described as follows: Forced swimming test (FST) in social defeat stress model of depression. It is filed as in vivo. The conditions noted are these: 10 mg/kg intraperitoneally; for immobility time in FST: single administration. Here is the method: (§1) The TST was performed as follows. […] The FST was performed as follows. […] The LMT was performed as follows. […] The SPT was performed as follows.

Data set [6] concerns social defeat stress mice. The data set is described as follows: 1% sucrose preference test (SPT) in social defeat stress model of depression. The conditions noted are these: 10 mg/kg intraperitoneally, seven days after administration.
The test system of data set [7] is social defeat stress mice. Kind of data set: Tail suspension test (TST) in social defeat stress model of depression. It is filed as in vivo. The conditions noted are these: 10 mg/kg intraperitoneally; for immobility time in TST: single administration. Here is the method:
as §1

Data set [8] concerns social defeat stress mice. The data set is described as follows: Golgi staining, spine density in brain regions of social defeat stress mice. In kind it is in vivo. The conditions noted are these: 10 mg/kg intraperitoneally, eight days after administration.
In data set [9] the test system is normal mice. Kind of data set: Conditioned place preference test (CPP) (side effects). The note with it: 20 mg/kg; vs saline.
Data set [10] can be described thus: Plasma concentration of (S)-norketamine after peroral administration of (S)-norketamine derivative. It is filed as in vivo. The conditions noted are these: mice; 30 mg/kg perorally; 15 min to 8 h. Here is the method:
The pharmacokinetic profile of an (S)-norketamine derivative was investigated through measurement of the blood concentration of (S)-norketamine after administration thereof.
The obtained blood plasma was placed into a polypropylene microtube and stored in a freezer at −80° C.
The plasma concentration of (S)-norketamine was measured by the method described below.
STD (standard) solution (10 μL) was added to mouse plasma (20 μL) as a calibration curve sample. A mixture of acetonitrile/water (1:1, v/v) was added to a sample, a blank sample, and a QC (quality control) sample.
Agitation was performed for 10 seconds, and I.S. (internal standard) solution (Norketamine-D4: 10 ng/mL) (100 μL) was added. A mixture of acetonitrile and methanol (=9:1) was added to the blank sample.
Agitation was performed for 30 seconds, followed by centrifugation at room temperature and 16,000×g for three minutes. The supernatant (80 μL) was transferred to a new microtube, and 0.001 mol/L ammonium hydrogen carbonate (100 μL) was added to the microtube.
Agitation was performed for 10 seconds, followed by centrifugation at room temperature and 16,000×g for two minutes.
The (S)-norketamine concentration was measured through HPLC.
The measurement conditions are as follows.

Data set [11] relates to NMDA receptor. The conditions noted are these: Non-Patent Document 12; cited from earlier work.
Where [12] appears, read: 10 mg/kg intraperitoneally, vs LPS-treated mice administered saline.
The mark [13] stands for this setting: 10 mg/kg each, intraperitoneally.
Where [14] appears, read: 5, 10, or 20 mg/kg intraperitoneally 23 h after LPS.

In the case of `CNC1(c2ccccc2Cl)CCCCC1=O` (racemic) [ketamine], the prepulse inhibition deficit entry in [1] (10 mg/kg, prepulse stimulation at 77 dB or 81 dB) was “induced prepulse inhibition deficit”. Also, the “amount of locomotion (hyperlocomotion effect)” value in [2] (10 mg/kg, 10 minutes after administration, vs normal mice administered saline) is “significant increase in amount of locomotion”. Also, the “time after administration at which enhanced amount of locomotion returned to a normal value” (shortened to “time after administration”) in [2] amounted to 20 min. Besides, the “immobility time in FST” value in [3] (setting [12]) is “significantly reduced immobility time”. In data set [4] (setting [12]), the “immobility time in TST” value is “significantly reduced immobility time”.
`N[C@@]1(c2ccccc2Cl)CCCCC1=O` [(R)-norketamine]: the “immobility time in FST” value in [5] was “did not exhibit an antidepressant effect”. Besides, the “sucrose consumption preference in SPT” value in data set [6] is given as “did not restore it”. Also, the “immobility time in TST” value in data set [7] is “did not exhibit an antidepressant effect”. In data set [8], the “spine density in frontal cortex (prelimbic region), hippocampus CA3 region and hippocampal dentate gyrus” value was “did not exhibit the effect of increasing the spine density”; the “spine density in nucleus accumbens (core region and shell region)” value was “not affected”.
Take `CN[C@]1(c2ccccc2Cl)CCCCC1=O` [(S)-ketamine]: the “CPP score (conditioned place preference, drug dependence)” value in data set [9] is given as “significantly increase the CPP score”. For the same compound, the prepulse inhibition deficit result in data set [1] (10 mg/kg) is recorded as “induced prepulse inhibition deficit”. Further, in data set [2] (10 mg/kg, 10 minutes and 20 minutes after administration, vs normal mice administered saline), the “amount of locomotion (hyperlocomotion effect)” value is given as “significant increase in amount of locomotion”. Moreover, the “time after administration” value in data set [2] stood at 30 min.
Consider `N[C@]1(c2ccccc2Cl)CCCCC1=O` [(S)-norketamine], for which the “CPP score (conditioned place preference, drug dependence)” value in data set [9] is listed as “did not increase the CPP score”. Further, the prepulse inhibition deficit entry in data set [1] (5, 10, or 20 mg/kg) is listed as “did not induce prepulse inhibition deficit”. Moreover, the “amount of locomotion (hyperlocomotion effect)” value in data set [2] (5, 10, or 20 mg/kg) is “did not affect the amount of locomotion”. Also, in [5], the “antidepressant effect in FST compared with (R)-norketamine” value is “significantly higher antidepressant effect than (R)-norketamine” and the “immobility time in FST” value is listed as “significantly reduced immobility time”. In data set [6], the “sucrose consumption preference in SPT” value is on record as “significantly restored the sucrose consumption preference”. Also, in data set [7], the “antidepressant effect in TST compared with (R)-norketamine” value is on record as “significantly higher antidepressant effect than (R)-norketamine” and the “immobility time in TST” value is “significantly reduced immobility time”. Also, in data set [8], the “spine density in frontal cortex (prelimbic region), hippocampus CA3 region and hippocampal dentate gyrus” value is reported as “significantly increased the spine density”; the “spine density in nucleus accumbens (core region and shell region)” value is on record as “not affected”.
Consider `Cc1oc(=O)oc1COC(=O)N[C@]1(c2ccccc2Cl)CCCCC1=O` [Compound 1, (5-methyl-2-oxo-1,3-dioxol-4-yl)methyl-(S)-(1-(2-chlorophenyl)-2-oxocyclohexyl) carbamate], for which, in [10], the “decrease of blood concentration compared with (S)-norketamine derivative (2)” value is “decreased more slowly”.
For `NC1(c2ccccc2Cl)CCCCC1=O` (centres unmarked) [norketamine], the prepulse inhibition deficit entry was “did not induce prepulse inhibition deficit” in data set [1] (5 mg/kg or 10 mg/kg) and “significantly induced prepulse inhibition deficit” in [1] (20 mg/kg, prepulse stimulation at 81 dB). Also, the “amount of locomotion (hyperlocomotion effect)” value was “did not affect the amount of locomotion” in data set [2] (5 mg/kg or 10 mg/kg) and “significant increase in amount of locomotion” in [2] (20 mg/kg, 10 minutes after administration, vs normal mice administered saline). Further, in data set [2] (20 mg/kg, 10 minutes after administration), the “amount of locomotion compared with ketamine (10 mg/kg)” value is listed as “significantly lower than that in the mice administered ketamine (10 mg/kg)”. The “time after administration” value in data set [2] worked out at 20 min. Moreover, the “antidepressant effect in FST compared with ketamine” value in [3] (setting [13]) is “significantly stronger compared to ketamine”. The figures for the “immobility time in FST” value in data set [3] (setting [12]) and in [3] (setting [14]) were “significantly reduced immobility time” and “dose-dependently reduced immobility time”, respectively. For the same compound, the “affinity for an NMDA receptor, factor lower than ketamine” value in [11] is recorded as “about 6.8 fold”. The “antidepressant effect in TST compared with ketamine” value in data set [4] (setting [13]) is listed as “significantly stronger compared to ketamine”. The “immobility time in TST” value is “significantly reduced immobility time” in data set [4] (setting [12]) and “dose-dependently reduced immobility time” in data set [4] (setting [14]).
